From paper PMC9550789, “Identification and biochemical characterization of a novel N-acetylglucosamine kinase in Saccharomyces cerevisiae” (Scientific Reports, 2022)

T1: Emi2 (Saccharomyces cerevisiae, UniProt Q04409)
T1 sequence (Q04409 2-500): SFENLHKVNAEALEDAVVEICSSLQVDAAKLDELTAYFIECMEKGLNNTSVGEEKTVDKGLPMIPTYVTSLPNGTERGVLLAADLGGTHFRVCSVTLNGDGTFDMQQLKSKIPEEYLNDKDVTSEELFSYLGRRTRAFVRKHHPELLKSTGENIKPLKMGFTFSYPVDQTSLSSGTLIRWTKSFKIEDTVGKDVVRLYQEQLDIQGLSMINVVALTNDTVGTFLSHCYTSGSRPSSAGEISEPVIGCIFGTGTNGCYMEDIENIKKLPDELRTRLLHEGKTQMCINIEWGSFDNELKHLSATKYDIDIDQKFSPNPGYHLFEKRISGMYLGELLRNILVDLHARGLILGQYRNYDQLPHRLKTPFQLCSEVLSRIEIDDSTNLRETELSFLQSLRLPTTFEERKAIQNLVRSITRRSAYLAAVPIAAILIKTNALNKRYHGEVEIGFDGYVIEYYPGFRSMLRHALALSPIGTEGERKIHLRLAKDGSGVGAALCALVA

T2: Glk1 (Saccharomyces cerevisiae, UniProt P17709)
T2 sequence (P17709 2-500): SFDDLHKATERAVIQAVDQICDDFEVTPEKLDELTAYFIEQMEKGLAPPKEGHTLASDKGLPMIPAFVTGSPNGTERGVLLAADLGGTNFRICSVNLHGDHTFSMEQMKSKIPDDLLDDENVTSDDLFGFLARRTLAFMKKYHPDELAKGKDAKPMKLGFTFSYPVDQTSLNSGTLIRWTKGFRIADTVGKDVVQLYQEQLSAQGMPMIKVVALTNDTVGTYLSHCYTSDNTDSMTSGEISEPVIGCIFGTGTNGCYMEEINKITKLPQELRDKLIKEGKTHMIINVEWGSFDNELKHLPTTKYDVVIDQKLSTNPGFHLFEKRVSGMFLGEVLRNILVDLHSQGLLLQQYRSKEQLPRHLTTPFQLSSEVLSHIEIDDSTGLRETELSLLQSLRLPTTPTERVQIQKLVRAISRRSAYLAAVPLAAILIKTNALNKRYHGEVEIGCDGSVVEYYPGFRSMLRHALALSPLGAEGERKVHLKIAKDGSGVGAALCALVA

T3: Hxk2 (Saccharomyces cerevisiae, UniProt P04807)
T3 sequence (P04807 2-486): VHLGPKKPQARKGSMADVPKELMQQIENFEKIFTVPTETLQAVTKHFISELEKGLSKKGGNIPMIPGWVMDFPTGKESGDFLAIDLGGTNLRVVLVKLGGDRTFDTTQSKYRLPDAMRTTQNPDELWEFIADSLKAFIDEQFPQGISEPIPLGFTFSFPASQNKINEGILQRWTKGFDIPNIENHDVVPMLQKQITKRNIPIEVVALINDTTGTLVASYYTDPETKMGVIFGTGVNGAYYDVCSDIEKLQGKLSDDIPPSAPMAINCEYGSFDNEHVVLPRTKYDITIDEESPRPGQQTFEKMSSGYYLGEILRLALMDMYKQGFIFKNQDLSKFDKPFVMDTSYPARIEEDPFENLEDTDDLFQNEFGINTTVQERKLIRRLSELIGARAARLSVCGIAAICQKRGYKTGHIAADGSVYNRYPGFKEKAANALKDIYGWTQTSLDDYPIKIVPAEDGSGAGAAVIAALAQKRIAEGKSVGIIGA

T4: Hxk1 (Saccharomyces cerevisiae, UniProt P04806)
T4 sequence (P04806 1-485): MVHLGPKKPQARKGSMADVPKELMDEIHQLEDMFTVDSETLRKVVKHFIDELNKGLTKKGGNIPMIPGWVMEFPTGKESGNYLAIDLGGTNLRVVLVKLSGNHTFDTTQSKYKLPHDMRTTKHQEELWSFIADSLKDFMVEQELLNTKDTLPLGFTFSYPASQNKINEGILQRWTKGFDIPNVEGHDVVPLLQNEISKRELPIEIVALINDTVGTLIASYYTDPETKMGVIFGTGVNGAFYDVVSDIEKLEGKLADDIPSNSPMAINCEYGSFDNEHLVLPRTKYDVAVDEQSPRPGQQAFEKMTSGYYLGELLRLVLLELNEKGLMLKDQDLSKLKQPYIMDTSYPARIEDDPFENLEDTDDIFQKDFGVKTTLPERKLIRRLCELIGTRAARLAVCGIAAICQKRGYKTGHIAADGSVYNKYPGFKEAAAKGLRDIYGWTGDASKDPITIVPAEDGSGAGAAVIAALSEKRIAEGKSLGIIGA

B1: Ngk1 (YLR446Wp) (Saccharomyces cerevisiae S288C) (protein)
chain: MTIESTLARELESLILPADSIVNVVDQFQEELLSRLQTNTISMLPQCLVPDKRSRWNPEDKILTIDFGGTRLKFAIISLPQIVIEYNDAFELTYNIVDSNFFNQIIYTICTRLAANGYIKKKNESSEASKFFVSVTFSFPLNPEGEVVAMGKGFVMTDTLQGSTVKQLIQSSFHRIISENIEEFFCTMNVCHVINDAIAVSLTSKFICENDSISLIIGTGTNACFEVPYGYLPPFKRDALRETLPSSYNKETLNFKHVLINSEIGFIGKNVIALQPFDIHGAISYEMPLECVTSGKWLPLSLKNILLQYNIIPKNFPVEFNGELVCQLAEDCTNAWFENEHYALICQIARLLIKRAAFYVAAIVQAIDIITGCKNYNFIHIGYVGSFLHNSNFYREQIKYYSSIHIKLQFLNHSNLLGAAIATYLNKSDNQVQ
notes: full-length ORF, 433 residues, about 50 kDa predicted, N-terminal His6-tag (pCold II), E. coli BL21 (DE3), HisTrap purified; tag removal not mentioned

How the values were obtained:
Emi2 = biological target: T1, Emi2; experiment: phosphorylation of glucose; format: biochemical; conditions: sugar phosphorylation with ATP; details in supplement
Glk1 = biological target: T2, Glk1; experiment: phosphorylation of glucose; format: biochemical; conditions: sugar phosphorylation with ATP; details in supplement
Hxk2 = biological target: T3, Hxk2; experiment: phosphorylation of glucose; format: biochemical; conditions: sugar phosphorylation with ATP; details in supplement
Hxk1 = biological target: T4, Hxk1; experiment: phosphorylation of glucose; format: biochemical; conditions: sugar phosphorylation with ATP; details in supplement
[1] = substrate: Nc1ncnc2c1ncn2[C@@H]1O[C@H](COP(=O)(O)OP(=O)(O)OP(=O)(O)O)[C@@H](O)[C@H]1O; experiment: pyruvate kinase / lactate dehydrogenase coupled assay, ADP formation; format: biochemical, Saccharomyces cerevisiae; conditions: GlcNAc as sugar substrate (concentration not given)

Molecule | phosphorylation of glucose (Emi2) | phosphorylation of glucose (Glk1) | phosphorylation of glucose (Hxk2) | phosphorylation of glucose (Hxk1) | Km [1] | kcat [1]
OC[C@H]1OC(O)[C@H](O)[C@@H](O)[C@@H]1O (stereo partly drawn) [glucose] | all these hexokinases clearly exhibited the activity for Glc | all these hexokinases clearly exhibited the activity for Glc | all these hexokinases clearly exhibited the activity for Glc | all these hexokinases clearly exhibited the activity for Glc | – | –
B1 | – | – | – | – | 1200 µM | 3.4 s⁻¹
